From US7923465B2, “Cannabinoid receptor ligands, pharmaceutical compositions containing them, and process for their preparation” (priority 2005, dated 2011)
Where two headings read alike, the source gives them in different places.

Key:
hCB2 = hCB2 (Homo sapiens, UniProt P34972); assay: In vitro binding assay using hCB2-CHO membranes, [3H]-CP-55,940 displacement (Protocol IV); design: expressed in transfected cells; host or cells: CHO (hCB2-CHO, generated in-house); conditions: 1 h, read-out: % Displacement Protocol IV
Description: IV. Protocol for In Vitro Assay Using hCB2-CHO Membranes:
In this assay, [^3H]-CP-55,940 was used as the radioligand to bind human CB2 receptor expressed on the membranes from CHO cells (hCB2-CHO cell line was generated in-house) which can be displaced by unlabeled ligands having affinity to the CB2 receptor.
The assay was performed according to the modified method of Ross et al., 1999 (Br. J. Pharmacol. 128, 735-743). The reaction was set up in a total volume of 200 μl in PEI (0.2%) precoated Millipore GFB filter plates. 1 mM stocks of test compounds were prepared in DMSO and tested at a final concentration of 300 nM. The non-specific binding was determined by 0.5 μM CP-55, 940. The total reaction mixture contained Tris-BSA buffer (50 mM Tris, 5 mM MgCl2, 1 mM EDTA, pH 7.4 with 0.1% BSA), unlabelled CP-55, 940 (0.5 μM) or test samples, [^3H]-CP-55, 940 (0.75 nM) and 25-50 μg of human CB2 receptor preparation. The assay mixture (with or without the test compound) was incubated at 30° C. for 1 hour. The reaction was stopped by rapid filtration under vacuum and the radioactivity on the filters was measured by liquid scintillation counting.
The percent (%) displacement by a test ligand was calculated by comparing the specific bound values.

[1] = hCB2-CHO membranes, [3H]-CP-55,940 displacement

Sequence of hCB2 (P34972 whole entry): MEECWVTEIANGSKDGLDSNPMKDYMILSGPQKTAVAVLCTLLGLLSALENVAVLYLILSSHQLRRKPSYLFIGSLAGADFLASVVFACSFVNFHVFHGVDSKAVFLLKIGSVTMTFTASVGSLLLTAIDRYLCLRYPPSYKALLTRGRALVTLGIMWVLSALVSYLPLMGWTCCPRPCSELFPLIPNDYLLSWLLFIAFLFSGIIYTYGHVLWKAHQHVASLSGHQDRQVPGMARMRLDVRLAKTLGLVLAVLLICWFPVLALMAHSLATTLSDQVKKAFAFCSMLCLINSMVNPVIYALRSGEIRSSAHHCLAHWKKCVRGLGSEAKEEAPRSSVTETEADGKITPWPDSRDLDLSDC

| SMILES | melting point [°C] | inhibition at 0.3 µM (hCB2) [%] | inhibition at 0.3 µM (hCB2; [1]) [%] |
| --- | --- | --- | --- |
| CC(C)(NC(=O)c1nn(-c2ccc(F)cc2)c2c1C1CC3CC(C1)CC2C3)c1ccccc1 [Example 157, N(7)-(1-Methyl-1-phenylethyl)-5-(4-fluorophenyl)-5,6-diazatetracyclo[7.3.1.1^3,11.0^4,8]tetradeca-4(8),6-diene-7-carboxamide] | 180 to 182 | 88.5 |  |
| CC12CCC(C1)C(C)(C)C2NC(=O)c1nn(-c2ccc(F)cc2)c2c1C1CC3CC(C1)CC2C3 (stereo not drawn) [Example 159, N7-(1,3,3-Trimethylbicyclo[2.2.1]hept-2-yl)-5-(4-fluorophenyl)-5,6-diazatetracyclo[7.3.1.1^3,11.0^4,8]tetradeca-4(8),6-diene-7-carboxamide] | 139 to 141 | 97.7 |  |
| COc1ccc(-n2nc(C(=O)NN3CCCCC3)c3c2C2CC4CC(CC3C4)C2)cc1 [Example 163, N(7)-Piperidino-5-(4-methoxyphenyl)-5,6-diazatetracyclo[7.3.1.1^3,11.0^4,8]tetradeca-4(8),6-diene-7-carboxamide] | 156 |  | 14.5 |
| O=C(NC1C2CC3CC(C2)CC1C3)c1nn(-c2ccc(F)cc2)c2c1C1CCC2C1 (stereo not drawn) [Example 281, N5-(Adamantan-2-yl)-3-(4-fluorophenyl)-3,4-diazatricyclo[5.2.1.0^2,6]deca-2(6),4-diene-5-carboxamide] | 196 to 198 | 97.1 |  |
| CC(C)(NC(=O)c1nn(-c2ccc(F)cc2)c2c1C1CCC2C1)c1ccccc1 (stereo not drawn) [Example 282, N5-(1-Methyl-1-phenylethyl)-3-(4-fluorophenyl)-3,4-diazatricyclo[5.2.1.0^2,6]deca-2(6),4-diene-5-carboxamide] | 119 to 122 | 92.3 |  |
| O=C(NC12CC3CC(CC(C3)C1)C2)c1nn(-c2ccc(F)cc2)c2c1C1CCC2C1 (stereo not drawn) [Example 283, N5-(Adamantan-1-yl)-3-(4-fluorophenyl)-3,4-diazatricyclo[5.2.1.0^2,6]deca-2(6),4-diene-5-carboxamide] | 189 to 191 | 94.8 |  |
| CC(C)(NC(=O)c1nn(-c2ccc(F)cc2F)c2c1C1CCC2C1)c1ccccc1Cl (stereo not drawn) [Example 295, N5-[1-(2-Chlorophenyl)-1-methylethyl]-3-(2,4-difluorophenyl)-3,4-diazatricyclo[5.2.1.0^2,6]deca-2(6),4-diene-5-carboxamide] | 176 to 179 | 100 |  |
| CC12CCC(C1)C(C)(C)C2NC(=O)c1nn(-c2ccc(F)cc2F)c2c1C1CCC2C1 (stereo not drawn) [Example 296, N(3)-(1,3,3-Trimethylbicyclo[2.2.1]hept-2-yl)-1-(2,4-difluorophenyl)-4,5,6,7-tetrahydro-1H-4,7-methano-indazole-3-carboxamide] | 114 to 117 | 95.9 |  |
| O=C(NCc1ccc(Cl)cc1)c1nn(-c2ccc(F)cc2F)c2c1C1CCC2C1 (stereo not drawn) [Example 298, N5-(4-Chlorobenzyl)-3-(2,4-difluorophenyl)-3,4-diazatricyclo[5.2.1.0^2,6]deca-2(6),4-diene-5-carboxamide] | 121 to 125 |  | 11.2 |
| CCC(CC)(NC(=O)c1nn(-c2ccc(F)cc2F)c2c1C1CCC2C1)c1ccccc1 (stereo not drawn) [Example 299, N5-(1-Ethyl-1-phenylpropyl)-3-(2,4-difluorophenyl)-3,4-diazatricyclo[5.2.1.0^2,6]deca-2(6),4-diene-5-carboxamide] | 45 to 48 | 77.6 |  |
| CC[C@H](NC(=O)c1nn(-c2ccc(F)cc2F)c2c1C1CCC2C1)c1ccccc1 (stereo partly drawn) [Example 300, N5-[(1S)-1-Phenylpropyl]-3-(2,4-difluorophenyl)-3,4-diazatricyclo[5.2.1.0^2,6]deca-2(6),4-diene-5-carboxamide] | 100 to 103 | 90.1 |  |
| O=C(NC1(c2ccccc2)CC1)c1nn(-c2ccc(F)cc2F)c2c1C1CCC2C1 (stereo not drawn) [Example 308, N5-(1-phenylcyclopropyl)-3-(2,4-difluorophenyl)-3,4-diazatricyclo[5.2.1.0^2,6]deca-2(6),4-diene-5-carboxamide] | 90 | 86.6 |  |
| O=C(NC1C2CC3CC(C2)CC1C3)c1nn(-c2ccc(F)cc2F)c2c1C1CCC2C1 (stereo not drawn) [Example 309, N5-(2-Adamantyl)-3-(2,4-difluorophenyl)-3,4-diazatricyclo[5.2.1.0^2,6]deca-2(6),4-diene-5-carboxamide] | 159 to 161 | 98.5 |  |
| CC1(NC(=O)c2nn(-c3ccc(F)cc3F)c3c2C2CCC3C2)C2CC3CC(C2)CC1C3 (stereo not drawn) [Example 310, N5-(2-Methyl-2-adamantyl)-3-(2,4-difluorophenyl)-3,4-diazatricyclo[5.2.1.0^2,6]deca-2(6),4-diene-5-carboxamide] | 60 | 94.2 |  |
| CCC(C)(C)NC(=O)c1nn(-c2ccc(F)cc2F)c2c1C1CCC2C1 (stereo not drawn) [Example 313, N(3)-(tert-Pentyl)-1-(2,4-difluorophenyl)-4,5,6,7-tetrahydro-1H-4,7-methano-indazole-3-carboxamide] | 78 to 80 | 98.2 |  |
| O=C(NC1CC1)c1nn(-c2ccc(F)cc2F)c2c1C1CCC2C1 (stereo not drawn) [Example 317, N(3)-Cyclopropyl-1-(2,4-difluorophenyl)-4,5,6,7-tetrahydro-1H-4,7-methano-indazole-3-carboxamide] | 59 to 61 | 16.9 |  |
| O=C(NCC1CCCO1)c1nn(-c2ccc(F)cc2F)c2c1C1CCC2C1 (stereo not drawn) [Example 322, N(3)-(Tetrahydro-2-furanylmethyl)-1-(2,4-difluorophenyl)-4,5,6,7-tetrahydro-1H-4,7-methano-indazole-3-carboxamide] | 91 to 93 | 43.4 |  |
| CC12CCC(c3c(C(=O)NNc4ccccc4F)nn(-c4ccc(Cl)cc4Cl)c31)C2(C)C (stereo not drawn) [Example 402, N(3)-[(2-Fluorophenyl)amino]-1-(2,4-Dichlorophenyl)-7,8,8-trimethyl-4,5,6,7-tetrahydro-1H-4,7-methano-indazole-3-carboxamide] | 72 to 80 |  | 2.66 |
| CC12CCC(c3c(C(=O)NNc4ncccc4Cl)nn(-c4ccc(Cl)cc4Cl)c31)C2(C)C (stereo not drawn) [Example 404, N(3)-[(3-chloropyridin-2-yl)amino]-1-(2,4-Dichlorophenyl)-7,8,8-trimethyl-4,5,6,7-tetrahydro-1H-4,7-methano-indazole-3-carboxamide] | 142 to 145 |  | 23.8 |
| CC12CCC(c3c(C(=O)NC45CC6CC(CC(C6)C4)C5)nn(-c4ccc(F)cc4F)c31)C2(C)C (stereo not drawn) [Example 405, N(3)-(Adamantan-1-yl)-1-(2,4-difluorophenyl)-7,8,8-trimethyl-4,5,6,7-tetrahydro-1H-4,7-methano-indazole-3-carboxamide] | 162 to 165 | 87.9 |  |
| CC12CCC(C1)C(C)(C)C2NC(=O)c1nn(-c2ccc(F)cc2F)c2c1C1CCC2(C)C1(C)C (stereo not drawn) [Example 406, N(3)-(1,3,3-Trimethylbicyclo[2.2.1]hept-2-yl)-1-(2,4-difluorophenyl)-7,8,8-trimethyl-4,5,6,7-tetrahydro-1H-4,7-methano-indazole-3-carboxamide] | 171 to 173 | 94.3 |  |
| COC(=O)[C@H](NC(=O)c1nn(-c2ccc(F)cc2F)c2c1C1CCC2(C)C1(C)C)c1ccccc1 (stereo partly drawn) [Example 409, Methyl (2R)-2-[1-(2,4-difluorophenyl)-7,8,8-trimethyl-4,5,6,7-tetrahydro-1H-4,7-methano-indazole-3-carboxamido]-2-phenylethanoate] | 107 to 109 |  | 65.3 |
| CC(C)(NC(=O)c1nn(-c2ccc(F)cc2F)c2c1C1CCC2c2ccccc21)c1ccccc1 (stereo not drawn) [Example 509, N12-(1-Methyl-1-phenylethyl)-10-(2,4-difluorophenyl)-10,11-diazatetracyclo[6.5.2.0^2,7.0^9,13]pentadeca-2,4,6,9(13),11-pentaene-12-carboxamide] | 175 to 178 | 67.2 |  |
| CCC(C)(C)NC(=O)c1nn(-c2ccc(F)cc2F)c2c1C1CCC2CC1 [Example 802, N(5)-(tert-Pentyl)-3-(2,4-difluorophenyl)-3,4-diazatricyclo[5.2.2.0^2,6]undeca-2(6),4-diene-5-carboxamide] | 102 to 105 | 100 |  |
